Results reported in ChEMBL document CHEMBL1156950, “Synthesis and biological evaluation of 4-anilinoquinolines as potent inhibitors of epidermal growth factor receptor” (J Med Chem, 2010).
Activity calls are given as the source filed them. No cut-off for these calls is given here.

Assays:
[1] = target: Serine/threonine-protein kinase pim-2 (Homo sapiens) (UniProt Q9P1W9); assay: Inhibition of PIM2 at 10 uM assessed as residual activity by [33P]ATP radioactive filter binding assay relative to control
[2] = target: Mitogen-activated protein kinase 13 (Homo sapiens) (UniProt O15264); assay: Inhibition of p38delta at 10 uM assessed as residual activity by [33P]ATP radioactive filter binding assay relative to control
[3] = target: Serine/threonine-protein kinase MARK2 (Homo sapiens) (UniProt Q7KZI7); assay: Inhibition of MARK2 at 10 uM assessed as residual activity by [33P]ATP radioactive filter binding assay relative to control
[4] = target: Mitogen-activated protein kinase 3 (Homo sapiens) (UniProt P27361); assay: Inhibition of ERK1 at 10 uM assessed as residual activity by [33P]ATP radioactive filter binding assay relative to control
[5] = Inhibition of AMPK at 10 uM assessed as residual activity by [33P]ATP radioactive filter binding assay relative to control
[6] = target: Dual specificity tyrosine-phosphorylation-regulated kinase 1A (Homo sapiens) (UniProt Q13627); assay: Inhibition of DYRK1A at 10 uM assessed as residual activity by [33P]ATP radioactive filter binding assay relative to control
[7] = target: Serine/threonine-protein kinase Nek6 (Homo sapiens) (UniProt Q9HC98); assay: Inhibition of NEK6 at 10 uM assessed as residual activity by [33P]ATP radioactive filter binding assay relative to control
[8] = target: Dual specificity protein kinase TTK (Homo sapiens) (UniProt P33981); assay: Inhibition of TTK at 10 uM assessed as residual activity by [33P]ATP radioactive filter binding assay relative to control
[9] = Inhibition of PKA at 10 uM assessed as residual activity by [33P]ATP radioactive filter binding assay relative to control
[10] = target: Aurora kinase A (Homo sapiens) (UniProt O14965); assay: Inhibition of Aurora A at 10 uM assessed as residual activity by [33P]ATP radioactive filter binding assay relative to control
[11] = target: MAP/microtubule affinity-regulating kinase 3 (Homo sapiens) (UniProt P27448); assay: Inhibition of MARK3 at 10 uM assessed as residual activity by [33P]ATP radioactive filter binding assay relative to control
[12] = target: Ribosomal protein S6 kinase alpha-5 (Homo sapiens) (UniProt O75582); assay: Inhibition of MSK1 at 10 uM assessed as residual activity by [33P]ATP radioactive filter binding assay relative to control
[13] = target: Homeodomain-interacting protein kinase 2 (Homo sapiens) (UniProt Q9H2X6); assay: Inhibition of HIPK2 at 10 uM assessed as residual activity by [33P]ATP radioactive filter binding assay relative to control
[14] = target: Serine/threonine-protein kinase PLK1 (Homo sapiens) (UniProt P53350); assay: Inhibition of PLK1 at 10 uM assessed as residual activity by [33P]ATP radioactive filter binding assay relative to control
[15] = target: Tyrosine-protein kinase Lck (Homo sapiens) (UniProt P06239); assay: Inhibition of Lck at 10 uM assessed as residual activity by [33P]ATP radioactive filter binding assay relative to control
[16] = target: Tyrosine-protein kinase Yes (Homo sapiens) (UniProt P07947); assay: Inhibition of YES1 at 10 uM assessed as residual activity by [33P]ATP radioactive filter binding assay relative to control
[17] = target: Serine/threonine-protein kinase D1 (Homo sapiens) (UniProt Q15139); assay: Inhibition of PKD1 at 10 uM assessed as residual activity by [33P]ATP radioactive filter binding assay relative to control
[18] = target: MAP kinase-interacting serine/threonine-protein kinase 2 (Homo sapiens) (UniProt Q9HBH9); assay: Inhibition of MNK2 at 10 uM assessed as residual activity by [33P]ATP radioactive filter binding assay relative to control
[19] = Inhibition of PHK at 10 uM assessed as residual activity by [33P]ATP radioactive filter binding assay relative to control
[20] = target: Mitogen-activated protein kinase 14 (Homo sapiens) (UniProt Q16539); assay: Inhibition of p38alpha at 10 uM assessed as residual activity by [33P]ATP radioactive filter binding assay relative to control
[21] = target: Serine/threonine-protein kinase BRSK2 (Homo sapiens) (UniProt Q8IWQ3); assay: Inhibition of BRSK2 at 10 uM assessed as residual activity by [33P]ATP radioactive filter binding assay relative to control
[22] = target: Serine/threonine-protein kinase N2 (Homo sapiens) (UniProt Q16513); assay: Inhibition of PRK2 at 10 uM assessed as residual activity by [33P]ATP radioactive filter binding assay relative to control
[23] = target: Tyrosine-protein kinase BTK (Homo sapiens) (UniProt Q06187); assay: Inhibition of BTK at 10 uM assessed as residual activity by [33P]ATP radioactive filter binding assay relative to control
[24] = target: NUAK family SNF1-like kinase 1 (Homo sapiens) (UniProt O60285); assay: Inhibition of NUAK1 at 10 uM assessed as residual activity by [33P]ATP radioactive filter binding assay relative to control
[25] = target: Serine/threonine-protein kinase BRSK1 (Homo sapiens) (UniProt Q8TDC3); assay: Inhibition of BRSK1 at 10 uM assessed as residual activity by [33P]ATP radioactive filter binding assay relative to control
[26] = target: Mitogen-activated protein kinase 9 (Homo sapiens) (UniProt P45984); assay: Inhibition of JNK2 at 10 uM assessed as residual activity by [33P]ATP radioactive filter binding assay relative to control
[27] = target: Dual specificity tyrosine-phosphorylation-regulated kinase 2 (Homo sapiens) (UniProt Q92630); assay: Inhibition of DYRK2 at 10 uM assessed as residual activity by [33P]ATP radioactive filter binding assay relative to control
[28] = target: Mitogen-activated protein kinase 10 (Homo sapiens) (UniProt P53779); assay: Inhibition of JNK3 at 10 uM assessed as residual activity by [33P]ATP radioactive filter binding assay relative to control
[29] = cells; conditions: Mus musculus, BaF3, 96 h
Description: Growth inhibition of mouse BA/F3 cells expressing EGFR Del5 mutant after 96 hrs by cell titer-glo assay

[30] = cells; conditions: Mus musculus, BaF3, 96 h; remark: listed apart in the source
[31] = cells; conditions: Mus musculus, BaF3, 96 h; remark: listed apart in the source
Description: Growth inhibition of mouse BA/F3 cells expressing EGFR Del3 and Thr790Met mutant after 96 hrs by cell titer-glo assay

[32] = target: Epidermal growth factor receptor (Homo sapiens, UniProt P00533); assay: Inhibition of wild type EGFR by HTRF assay
[33] = target: Epidermal growth factor receptor (Homo sapiens, UniProt P00533, L858R/T790M); assay: Inhibition of EGFR Leu858Arg and Thr790Met mutant by HTRF assay; type: protein assay
[34] = test system: PC-9; assay: Cytotoxicity against human PC9 cells expressing 746-750 sequence deleted EGFR assessed as cell viability at 0.001 to 10 uM after 96 hrs by cell titer-glo assay; type: functional, cell-based

Chain of Homeodomain-interacting protein kinase 2 (Homo sapiens) (Q9H2X6 whole entry, looked up): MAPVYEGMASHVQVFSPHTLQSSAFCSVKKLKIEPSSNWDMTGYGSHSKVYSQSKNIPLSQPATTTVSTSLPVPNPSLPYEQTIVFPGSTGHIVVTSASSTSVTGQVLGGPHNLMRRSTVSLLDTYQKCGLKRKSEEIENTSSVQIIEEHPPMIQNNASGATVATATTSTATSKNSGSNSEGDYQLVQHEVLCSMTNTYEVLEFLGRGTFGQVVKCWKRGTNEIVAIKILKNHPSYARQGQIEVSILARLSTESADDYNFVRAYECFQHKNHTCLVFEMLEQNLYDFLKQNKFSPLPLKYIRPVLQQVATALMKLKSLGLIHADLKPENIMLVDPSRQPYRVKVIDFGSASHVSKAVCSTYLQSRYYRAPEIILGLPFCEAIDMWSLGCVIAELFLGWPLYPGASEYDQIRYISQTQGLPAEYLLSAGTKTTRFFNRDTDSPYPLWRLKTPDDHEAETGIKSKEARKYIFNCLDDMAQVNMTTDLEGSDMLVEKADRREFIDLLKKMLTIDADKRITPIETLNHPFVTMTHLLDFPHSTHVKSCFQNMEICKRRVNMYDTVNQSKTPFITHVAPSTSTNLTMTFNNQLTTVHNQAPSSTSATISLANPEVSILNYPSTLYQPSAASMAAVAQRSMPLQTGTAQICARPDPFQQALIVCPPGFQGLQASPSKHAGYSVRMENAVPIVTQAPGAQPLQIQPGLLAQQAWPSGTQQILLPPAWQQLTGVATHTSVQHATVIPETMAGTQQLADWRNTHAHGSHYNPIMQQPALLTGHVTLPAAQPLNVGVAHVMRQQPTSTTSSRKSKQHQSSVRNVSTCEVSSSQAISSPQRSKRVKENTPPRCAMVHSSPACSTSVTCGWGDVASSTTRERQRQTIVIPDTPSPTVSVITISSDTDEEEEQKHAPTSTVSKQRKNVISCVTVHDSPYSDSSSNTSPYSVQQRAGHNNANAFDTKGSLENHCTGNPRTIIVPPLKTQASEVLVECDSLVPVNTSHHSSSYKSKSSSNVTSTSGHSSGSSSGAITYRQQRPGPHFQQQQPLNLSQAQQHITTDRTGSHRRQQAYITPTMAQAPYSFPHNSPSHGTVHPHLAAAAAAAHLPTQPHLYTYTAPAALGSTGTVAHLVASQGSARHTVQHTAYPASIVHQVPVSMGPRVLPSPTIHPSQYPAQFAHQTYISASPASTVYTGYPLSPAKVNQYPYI
Chain of Tyrosine-protein kinase Lck (Homo sapiens) (P06239 2-509 limits assumed): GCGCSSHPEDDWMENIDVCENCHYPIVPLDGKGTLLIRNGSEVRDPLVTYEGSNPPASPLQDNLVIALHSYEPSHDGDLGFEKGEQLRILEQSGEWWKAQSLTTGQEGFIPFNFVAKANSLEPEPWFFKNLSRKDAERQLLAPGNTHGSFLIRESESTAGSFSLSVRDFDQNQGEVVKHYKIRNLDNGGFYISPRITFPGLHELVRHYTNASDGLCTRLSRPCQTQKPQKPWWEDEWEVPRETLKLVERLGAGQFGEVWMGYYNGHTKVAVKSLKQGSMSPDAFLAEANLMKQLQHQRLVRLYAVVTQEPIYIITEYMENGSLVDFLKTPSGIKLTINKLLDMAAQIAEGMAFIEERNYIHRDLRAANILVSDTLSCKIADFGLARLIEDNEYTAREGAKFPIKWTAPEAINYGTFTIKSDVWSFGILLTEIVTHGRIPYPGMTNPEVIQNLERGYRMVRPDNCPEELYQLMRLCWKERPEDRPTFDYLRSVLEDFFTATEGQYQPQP
Chain of MAP/microtubule affinity-regulating kinase 3 (Homo sapiens) (P27448 whole entry, looked up): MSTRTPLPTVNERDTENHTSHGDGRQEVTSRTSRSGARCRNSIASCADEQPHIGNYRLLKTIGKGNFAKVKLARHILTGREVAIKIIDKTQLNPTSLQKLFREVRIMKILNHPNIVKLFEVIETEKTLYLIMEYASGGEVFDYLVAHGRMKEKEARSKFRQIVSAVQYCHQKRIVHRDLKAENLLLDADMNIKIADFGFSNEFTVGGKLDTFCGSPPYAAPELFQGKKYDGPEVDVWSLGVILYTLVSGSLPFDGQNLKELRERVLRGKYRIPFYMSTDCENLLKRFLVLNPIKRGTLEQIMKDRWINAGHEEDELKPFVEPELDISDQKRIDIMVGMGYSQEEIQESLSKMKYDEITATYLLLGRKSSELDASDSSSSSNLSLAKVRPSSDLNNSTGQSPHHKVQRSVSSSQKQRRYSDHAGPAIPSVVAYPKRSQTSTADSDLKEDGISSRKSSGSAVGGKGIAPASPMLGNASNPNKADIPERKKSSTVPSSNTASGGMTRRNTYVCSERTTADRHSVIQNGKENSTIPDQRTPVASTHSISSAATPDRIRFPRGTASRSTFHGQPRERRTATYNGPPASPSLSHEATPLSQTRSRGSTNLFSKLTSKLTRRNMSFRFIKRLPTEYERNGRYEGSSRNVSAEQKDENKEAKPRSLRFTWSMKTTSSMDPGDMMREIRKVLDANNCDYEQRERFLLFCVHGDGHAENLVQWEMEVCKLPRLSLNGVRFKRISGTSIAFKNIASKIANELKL
Chain of Serine/threonine-protein kinase MARK2 (Homo sapiens) (Q7KZI7 whole entry): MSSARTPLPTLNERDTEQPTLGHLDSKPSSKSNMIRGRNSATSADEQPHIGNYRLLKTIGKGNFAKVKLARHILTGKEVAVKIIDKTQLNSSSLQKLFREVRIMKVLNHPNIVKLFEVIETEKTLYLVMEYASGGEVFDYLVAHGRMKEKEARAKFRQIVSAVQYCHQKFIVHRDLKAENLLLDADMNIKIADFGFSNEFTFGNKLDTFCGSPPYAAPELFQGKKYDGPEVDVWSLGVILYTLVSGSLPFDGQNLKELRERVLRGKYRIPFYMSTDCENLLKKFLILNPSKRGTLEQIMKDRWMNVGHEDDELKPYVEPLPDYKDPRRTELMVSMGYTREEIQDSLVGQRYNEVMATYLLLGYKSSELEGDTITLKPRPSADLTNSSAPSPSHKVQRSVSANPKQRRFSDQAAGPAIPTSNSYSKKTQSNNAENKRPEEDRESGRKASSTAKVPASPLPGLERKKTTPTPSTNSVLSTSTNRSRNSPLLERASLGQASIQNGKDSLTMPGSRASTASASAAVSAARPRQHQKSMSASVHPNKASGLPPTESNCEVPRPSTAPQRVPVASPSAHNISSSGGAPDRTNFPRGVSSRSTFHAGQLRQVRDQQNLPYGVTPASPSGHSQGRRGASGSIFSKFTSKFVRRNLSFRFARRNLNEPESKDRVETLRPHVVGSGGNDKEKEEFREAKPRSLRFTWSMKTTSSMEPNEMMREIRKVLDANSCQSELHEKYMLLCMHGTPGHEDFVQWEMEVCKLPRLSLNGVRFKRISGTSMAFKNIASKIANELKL
Chain of MAP kinase-interacting serine/threonine-protein kinase 2 (Homo sapiens) (Q9HBH9 whole entry, looked up): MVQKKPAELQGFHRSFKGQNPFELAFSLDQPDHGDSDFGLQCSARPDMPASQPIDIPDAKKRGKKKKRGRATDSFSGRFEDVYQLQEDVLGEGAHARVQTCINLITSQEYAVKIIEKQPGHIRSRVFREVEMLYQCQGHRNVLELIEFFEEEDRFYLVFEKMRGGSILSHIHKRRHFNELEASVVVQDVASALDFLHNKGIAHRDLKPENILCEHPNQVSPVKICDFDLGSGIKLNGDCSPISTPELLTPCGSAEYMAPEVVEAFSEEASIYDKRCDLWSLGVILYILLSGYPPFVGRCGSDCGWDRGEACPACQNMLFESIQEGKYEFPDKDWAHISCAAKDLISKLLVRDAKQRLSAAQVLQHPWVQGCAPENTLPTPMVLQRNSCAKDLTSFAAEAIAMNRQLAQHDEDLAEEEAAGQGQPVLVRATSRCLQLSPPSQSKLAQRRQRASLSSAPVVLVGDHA
Chain of Serine/threonine-protein kinase BRSK2 (Homo sapiens) (Q8IWQ3 whole entry): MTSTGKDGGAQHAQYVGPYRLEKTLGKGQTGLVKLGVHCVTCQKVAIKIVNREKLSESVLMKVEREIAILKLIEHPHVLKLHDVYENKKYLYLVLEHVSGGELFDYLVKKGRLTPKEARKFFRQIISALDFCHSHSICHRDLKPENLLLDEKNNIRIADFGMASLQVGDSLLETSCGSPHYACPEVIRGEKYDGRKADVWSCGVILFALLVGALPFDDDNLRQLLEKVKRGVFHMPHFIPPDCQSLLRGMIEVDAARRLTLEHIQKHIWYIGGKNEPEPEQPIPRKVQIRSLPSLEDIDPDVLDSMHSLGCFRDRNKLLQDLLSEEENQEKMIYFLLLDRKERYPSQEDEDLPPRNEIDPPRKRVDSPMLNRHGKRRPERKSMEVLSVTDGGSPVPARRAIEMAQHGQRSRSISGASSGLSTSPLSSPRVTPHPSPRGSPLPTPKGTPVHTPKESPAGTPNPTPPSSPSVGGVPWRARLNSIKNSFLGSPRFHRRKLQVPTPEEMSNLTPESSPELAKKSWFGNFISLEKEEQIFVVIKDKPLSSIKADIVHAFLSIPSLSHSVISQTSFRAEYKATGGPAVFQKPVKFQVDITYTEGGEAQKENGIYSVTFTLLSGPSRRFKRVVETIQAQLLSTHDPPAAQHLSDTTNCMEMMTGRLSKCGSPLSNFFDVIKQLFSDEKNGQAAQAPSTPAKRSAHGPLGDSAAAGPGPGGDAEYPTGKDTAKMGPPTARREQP
Chain of Mitogen-activated protein kinase 14 (Homo sapiens) (Q16539 whole entry): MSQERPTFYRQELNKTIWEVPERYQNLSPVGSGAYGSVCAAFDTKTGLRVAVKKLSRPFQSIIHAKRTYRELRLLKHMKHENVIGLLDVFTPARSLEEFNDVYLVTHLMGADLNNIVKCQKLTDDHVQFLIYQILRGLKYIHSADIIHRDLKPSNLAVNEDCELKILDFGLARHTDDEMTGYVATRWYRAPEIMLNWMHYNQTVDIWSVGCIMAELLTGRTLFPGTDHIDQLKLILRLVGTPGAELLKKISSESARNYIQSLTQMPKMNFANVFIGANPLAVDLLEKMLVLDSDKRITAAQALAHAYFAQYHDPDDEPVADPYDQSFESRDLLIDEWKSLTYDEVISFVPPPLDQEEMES

Structure (SMILES) | Activity [1] | Activity [2] | Activity [3] | Activity [4] | Activity [5] | Activity [6] | Activity [7] | Activity [8] | Activity [9] | Activity [10] | Activity [11] | Activity [12] | Activity [13] | Activity [14] | Activity [15] | Activity [16] | Activity [17] | Activity [18] | Activity [19] | Activity [20] | further results
CN(C)CCCC(=O)Nc1ccc2ncnc(Nc3cccc(Br)c3)c2c1 | 62% | 79% | 82% | 83% | 70% | 65% | 77% | 86% | 91% | 66% | 86% | 93% | 97% | 95% | 3% | 7% | 18% | 14% | 10% | 63% | Activity [21]: 29%; Activity [22]: 37%; Activity [23]: 79%; Activity [24]: 39%; Activity [25]: 52%; Activity [26]: 77%; Activity [27]: 51%; Activity [28]: 72%; GI50 [29]: < 500 nM; GI50 [30]: < 500 nM; GI50 [31]: > 5000 nM
CN(C)CCCC(=O)Nc1ccc2nccc(Nc3cccc(Br)c3)c2c1 | 75% | 76% | 77% | 82% | 83% | 85% | 85% | 85% | 86% | 88% | 94% | 96% | 104% | 109% | 1% | 4% | 14% | 21% | 26% | 30% | IC50 [32]: 1.7 nM; IC50 [33]: 130 nM; Activity [34]: Active; Activity [21]: 36%; Activity [22]: 36%; Activity [23]: 36%; Activity [24]: 37%; Activity [25]: 46%; Activity [26]: 50%; Activity [27]: 52%; Activity [28]: 62%; GI50 [29]: < 500 nM; GI50 [30]: < 500 nM; GI50 [31]: > 500 nM
